Measured values as given in patent publication US10335380B2, “Compounds suitable for the treatment of myeloproliferative neoplasms as well as methods for the diagnosis/prognosis of myeloproliferative neoplasms” (CNIC Fundacion Centro Nacional De investigaciones …, priority 2013, dated 2019).

What was measured:
[1] = test system: mice transplanted with MPN BM cells (JAK2-V617F); test: In vivo pharmacological treatments of mice transplanted with MPN (Mx1-cre;JAK2-V617F) BM cells; design: species or system mouse
Description: In Mx1-cre; JAK2-V617F double-transgenic mice, expression of the human JAK2-V617F mutation is driven by the endogenous Jak2 promoter and can be conditionally expressed in haematopoietic cells upon Myxovirus resistance-1 (Mx1)-driven Cre recombinase activation by polyinosine-polycytosine (plpC). PlpC-induced transgenic mice and wild-type mice transplanted with BM cells from these mice develop progressive symptoms of PV19,20.
Age-matched, female wild-type C57BL/6J or Nes-gfp mice were used as recipients in bone marrow (BM) transplantation assays and for in vivo pharmacological treatments. […] Vehicle (saline solution) daily injections were performed in the same way. Unless indicated, treatment was initiated 4 weeks posttransplant, when animals evidenced peripheral blood signs of MPN. Mice were randomly distributed prior to treatment initiation, and disease development was monitored over time in peripheral blood samples, using an automated blood counter. […] The neuroprotective drug 4-methylcatechol (10 μg kg-1, i.p.) was injected once daily. The JAK inhibitor INCB018424 (S-Ruxilitinib, Abmole Bioscience) was administered by oral gavage (30 mg kg-1, twice per day separated 10-12 hours) in 0.5% hydroxypropylmethylcellulose (Sigma) after solubilisation in DMSO. The IL-1 receptor antagonist (Kineret, Sobi, Stockholm, Sweden) was administered by subcutaneous osmotic pumps (Alzet) infusing a continuous dosing of 40 mg kg-1 per day. Mice were sacrificed at different time points and subjected to complete necropsy; BM and spleen were analysed by histology and flow cytometry; femora and skull were used for immunostainings, and haematopoietic and stromal cells were additionally used for functional assays ex vivo.
BM cell extraction, flow cytometry and fluorescence-activated cell sorting For haematopoietic cell recovery, bones were crushed in a mortar, filtered through a 40-μm mesh to obtain single cell suspensions, and depleted of red blood cells by lysis in 0.15 M NH4Cl for 10 min at 4° C. Spleen samples were homogenised and filtered prior to lysis; blood samples were directly lysed. Cells (1-2×10^6 cells per sample) were incubated with the appropriate dilution (2-5 μg ml-1) of fluorescent antibody conjugates and 4′,6-diamidino-2-phenylindole (DAPI) for dead cell exclusion, and analysed on LSRFortessa flow cytometer (BD Biosciences, Franklin Lakes, N.J.) equipped with FACSDiva Software (BD Biosciences). […] Biotinylated antibodies were detected with fluorochrome-conjugated streptavidin (BD Biosciences). Phenotypic populations of HSC were defined as long-term haematopoietic stem cells (HSCs) (lin− Sca1+c-kit+ (LSK) CD34− Flt3−), short-term HSCs (LSK CD34+ Flt3−) and multipotent progenitors (MPP) (LSK CD34+ Flt3+).
Cells were filtered through a 40-μm mesh and erythrocytes were lysed as previously described. The resulting bone marrow-enriched cell suspensions were pelleted, washed and resuspended in PBS buffer containing 2% foetal calf serum (FCS) for further analyses. […] BM stromal CD45− CD31− Ter119− cells were further purified according to GFP fluorescence using a FACS Aria cell sorter (BD Bioscience). For the determination of apoptotic cells, samples were washed with PBS after surface antibody staining and subsequently stained with Annexin V-Pacific Blue and SYTOX AADvanced (Invitrogen, Life Technologies, Paisley, UK). For functional assays, cells were enriched by immunomagnetic depletion using biotinylated CD45 and Ter119. For immunophenotypic characterisation, total BM samples were studied by flow cytometry using the following additional antibodies: CD63 (NVG-2), CD105 (MJ7/18), CD140a (APA5), Vcam, CD51 (RMV-7), all from Biolegend; and CD90.2 from BD Biosciences.
Immunofluorescence staining of cryostat sections was performed. For whole mount staining of the calvaria, all incubation times were extended. The antibodies used were TH (Rabbit pAb, Millipore) and GFAP (Rabbit pAb, Dako).

[2] = target: β1 receptors (Homo sapiens, UniProt P08588); settings: read-out: Ki for β1 receptors; cited from earlier work
[3] = advanced MPN, BRL37344 started upon thrombocytosis
[4] = symptomatic MPN mice, chronic BRL37344 2 mg kg-1 i.p. twice a day

Sequence of β1 receptors (P08588 whole entry): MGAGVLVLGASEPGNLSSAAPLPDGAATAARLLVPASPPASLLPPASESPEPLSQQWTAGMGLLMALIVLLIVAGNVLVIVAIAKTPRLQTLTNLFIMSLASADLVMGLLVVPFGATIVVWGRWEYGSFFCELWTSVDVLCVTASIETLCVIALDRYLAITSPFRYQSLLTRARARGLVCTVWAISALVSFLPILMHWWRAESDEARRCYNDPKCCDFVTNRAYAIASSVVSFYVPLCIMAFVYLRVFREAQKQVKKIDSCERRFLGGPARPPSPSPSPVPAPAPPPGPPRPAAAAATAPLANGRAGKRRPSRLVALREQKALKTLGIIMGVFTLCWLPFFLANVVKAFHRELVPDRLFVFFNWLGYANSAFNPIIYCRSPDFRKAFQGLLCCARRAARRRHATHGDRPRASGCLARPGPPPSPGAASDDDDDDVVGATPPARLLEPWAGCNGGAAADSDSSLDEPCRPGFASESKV

C[C@H](Cc1ccc(OCC(=O)O)cc1)NC[C@H](O)c1cccc(Cl)c1 [BRL37344, [4-[(2R)-2-[[(2R)-2-(3-clorophenyl)-2-hydroxyethyl]amino]propyl]phenoxy]acetic acid]
incipient MPN signs (haematological parameters) ([1]; 8 weeks after transplantation, treatment for the last 4 weeks): improved | IL-1β in BM supernatant ([1]; BRL37344, 4 weeks, FIG. 4e): reduced | BM Nes-GFP+ cell number ([1]; BRL37344, 8 weeks, FIG. 4f): restored | Cxcl12 levels in BM ([1]; BRL37344, 16 weeks, FIG. 4g): increased | mutant haematopoietic progenitors (LSK cells, LT- and ST-HSCs) ([1]; BRL37344 administered at thrombocytotic stage, FIG. 4k): efficiently decreased | MPN progression ([1]; BRL37344 or Mirabegron 2 mg kg-1 i.p. twice a day): blocks | neuroglial gene expression (Mbp, Mobp, Pleckhb1 mRNA) in BM Nes-GFP+ cells from MPN mice ([1]; BRL37344 over 8 weeks, starting 4 weeks after transplantation): do not express | Schwann cell program activation in BM nestin+ cells ([1]; BRL37344 over 8 weeks, starting 4 weeks after transplantation, FIG. 11c): blocked | BM Schwann cells (Gfap immunostaining) [1, 3]: rescued | BM interleukin-1β [1, 3]: reduced | erythrocytosis [1, 3]: reduced | fibrosis and osteosclerosis [1, 3]: reduced | neutrophilia [1, 3]: reduced | thrombocytosis [1, 3]: reduced | BM fibrosis: excessive bone and fibroblastic tissue (reticulin, Van Gieson) ([1]; chronic BRL37344 versus vehicle-injected mice with severe fibrosis): virtually devoid of excessive bone and fibroblastic tissue | mutant haematopoietic progenitor expansion ([1]; early treatment, 4 weeks, BRL37344 2 mg kg-1 twice a day, 4-methylcatechol 10 μg kg-1 once daily): prevented | mutant haematopoietic progenitors ([1]; long-term BRL37344 treatment, 16 weeks): efficiently decreased | JAK2-V617F+ HSC expansion ([1]; long-term BRL37344 treatment, 16 weeks, 2 mg kg-1 twice a day i.p.): inhibits | MPN-associated thrombocytosis [1, 4]: prevented | red blood cell reduction [1, 4]: delayed | MPN-associated neutrophilia ([1]; symptomatic MPN mice, treatment started 4 weeks after transplantation, BRL37344 2 mg kg-1 i.p. twice a day, 4-methylcatechol 10 μg kg-1 i.p. once daily): prevented | Ki [2]: 1750 nM
